Test results: article PMC8651256 (Environmental science & technology, 2021)
“Also recorded” adds a separate entry of the source.

How the values were obtained:
[1] = target: human serum albumin (HSA) (Homo sapiens, UniProt P02768); test: Differential scanning fluorimetry; conditions: for EC50 / ΔTm / Kd / HSA binding (in words): 0.125 mM HSA; for EC50: 4-parameter variable slope model; for EC50 / Kd: mean ± SD; for ΔTm: maximal melting temperature shift; for HSA binding (in words): DSF; for thermal shift profile at different reaction volumes (volatility check): volumes of 10, 20, 50 and 200 μL per sealed well
human serum albumin (HSA), sequence (P02768 25-609): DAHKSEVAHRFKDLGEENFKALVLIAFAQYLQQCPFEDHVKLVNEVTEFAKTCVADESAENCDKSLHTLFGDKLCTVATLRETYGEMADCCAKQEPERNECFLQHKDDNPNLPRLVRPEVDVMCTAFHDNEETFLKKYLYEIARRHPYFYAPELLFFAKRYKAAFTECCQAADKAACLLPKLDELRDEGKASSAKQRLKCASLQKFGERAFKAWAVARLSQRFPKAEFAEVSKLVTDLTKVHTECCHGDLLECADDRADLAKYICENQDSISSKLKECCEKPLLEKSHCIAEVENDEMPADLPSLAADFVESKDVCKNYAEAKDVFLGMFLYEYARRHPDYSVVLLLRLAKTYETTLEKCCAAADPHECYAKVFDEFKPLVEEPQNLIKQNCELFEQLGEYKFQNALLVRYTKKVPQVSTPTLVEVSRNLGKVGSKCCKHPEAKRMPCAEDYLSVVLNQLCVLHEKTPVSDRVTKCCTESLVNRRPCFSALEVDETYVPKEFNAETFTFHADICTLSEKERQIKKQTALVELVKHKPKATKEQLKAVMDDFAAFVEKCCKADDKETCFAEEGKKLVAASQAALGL

[2] = DMSO as solvent; cited from earlier work
[3] = PFAS, single-site ligand binding model

Row | Compound | EC50 ([1]; PFAS) [mM] | ΔTm ([1]; PFAS) [°C] | Kd [1, 3] [mM] | further results
1 | O=C(O)CCC(F)(F)C(F)(F)C(F)(F)F [3:3 FTCA, 2H,2H,3H,3H-perfluorohexanoic acid] | 2.06 ± 0.51 | 2.24 ± 0.062 | 1.71 ± 0.47 | 
2 | OCCC(F)(F)C(F)(F)C(F)(F)C(F)(F)F [4:2 FTOH, 1H,1H,2H,2H-perfluorohexane-1-ol] |  | 0 ± 0 |  | HSA binding (in words) [1]: not bound by HSA; also recorded: did not bind HSA; thermal shift profile at different reaction volumes (volatility check) [1]: no differences
3 | O=S(=O)(O)CCC(F)(F)C(F)(F)C(F)(F)C(F)(F)F [4:2 FTSA, 2H,2H,3H,3H-perfluorohexanesulfonic acid] | 1.45 ± 0.34 | 3.49 ± 0.12 | 1.07 ± 0.47 | 
4 | O=C(O)CCC(F)(F)C(F)(F)C(F)(F)C(F)(F)C(F)(F)F [5:3 FTCA, 2H,2H,3H,3H-perfluorooctanoic acid] | 1.48 ± 0.24 | 3.62 ± 0.14 | 0.62 ± 0.1 | 
5 | OCCC(F)(F)C(F)(F)C(F)(F)C(F)(F)C(F)(F)C(F)(F)F [6:2 FTOH, 1H,1H,2H,2H-perfluorooctanol] |  | 0 ± 0 |  | HSA binding (in words) [1]: not bound by HSA; also recorded: did not bind HSA; thermal shift profile at different reaction volumes (volatility check) [1]: no differences
6 | O=S(=O)(O)CCC(F)(F)C(F)(F)C(F)(F)C(F)(F)C(F)(F)C(F)(F)F [6:2 FTSA, 2H,2H,3H,3H-perfluorooctane-1-sulfonate] | 0.47 ± 0.29 | 3.60 ± 0.47 | 0.37 ± 0.34 | thermal shift profile at different reaction volumes (volatility check) [1]: no differences
7 | O=C(O)CCC(F)(F)C(F)(F)C(F)(F)C(F)(F)C(F)(F)C(F)(F)F [6:3 FTCA, 2,H,2H,3H,3H-perfluorononanoic acid] | 0.84 ± 0.21 | 9.50 ± 0.20 | 0.81 ± 0.23 | 
8 | O=C(O)CCC(F)(F)C(F)(F)C(F)(F)C(F)(F)C(F)(F)C(F)(F)C(F)(F)C(F)(F)F [8:3 FTCA, 2,H,2H,3H,3H-perfluoroundecanoate] | 1.16 ± 0.42 | 10.01 ± 0.17 | 0.97 ± 0.17 | 
9 | FC(OC(F)(F)C(F)(F)C(F)(F)F)C(F)(F)F (stereo not shown) [E1, 1,1,1,2,2,3,3-heptafluoro-3-(1,2,2,2-tetrafluoroethoxy)propane] |  |  |  | HSA binding (in words) [1]: bound by albumin; EC50 ([1]; EC50, PFAS): 2.34 ± 0.56 mM
10 | O=C(O)C(F)(OC(F)(F)C(F)(F)C(F)(F)F)C(F)(F)F (stereo not shown) [HFPO-DA, hexafluoropropylene oxide dimer acid] | 1.83 ± 0.87 | 13.7 ± 0.17 | 1.6 ± 0.55 | time to rapid and complete conversion of HFPO-DA to E1 [2]: under 4 h
11 | O=S(=O)(O)C(F)(F)C(F)(F)OC(F)(C(F)(F)F)C(F)(F)OC(F)C(F)(F)F (stereo not shown) [Nafion bp2] | 1.9 ± 0.59 | 12.4 ± 0.17 | 1.51 ± 0.37 | 
12 | O=C(O)C(F)(F)C(F)(F)C(F)(F)F [PFBA, perfluorobutanoic acid] | 2.61 ± 0.47 | 6.48 ± 0.18 | 2.57 ± 0.78 | 
13 | O=S(=O)(O)C(F)(F)C(F)(F)C(F)(F)C(F)(F)F [PFBS, perfluorobutanesulfonic acid] | 1.72 ± 0.56 | 11.9 ± 0.11 | 1.65 ± 0.69 | 
14 | O=C(O)C(F)(F)C(F)(F)C(F)(F)C(F)(F)C(F)(F)C(F)(F)C(F)(F)C(F)(F)C(F)(F)F [PFDA, perfluorodecanoic acid] | 1.11 ± 0.17 | 17.2 ± 0.13 | 1.19 ± 0.59 | 
15 | O=C(O)C(F)(F)C(F)(F)C(F)(F)C(F)(F)C(F)(F)F [PFHxA, Perfluorohexanoic acid] | 1.4 ± 0.27 | 10.6 ± 0.24 | 1.64 ± 0.47 | 
16 | O=S(=O)(O)C(F)(F)C(F)(F)C(F)(F)C(F)(F)C(F)(F)C(F)(F)F [PFHxS, perfluorohexanesulfonic acid] |  |  |  | thermal shift profile at different reaction volumes (volatility check) [1]: no differences
17 | O=C(O)C(F)(F)C(F)(F)C(F)(F)C(F)(F)C(F)(F)C(F)(F)C(F)(F)C(F)(F)F [PFNA, perfluorononanoic acid] | 0.6 ± 0.23 | 13.4 ± 0.34 | 0.58 ± 0.21 | 
18 | O=C(O)C(F)(F)C(F)(F)C(F)(F)C(F)(F)C(F)(F)C(F)(F)C(F)(F)F [PFOA, perfluorooctanoic acid] |  |  |  | EC50 ([1]; EC50, PFAS): 0.84 ± 0.15 mM; Kd ([1]; Kd, PFOA stock in HEPES-buffered saline (HBS)): 0.83 ± 0.27 mM; Kd ([1]; Kd, PFOA stock in methanol (30% in HBS)): 0.83 ± 0.15 mM
19 | O=S(=O)(O)C(F)(F)C(F)(F)C(F)(F)C(F)(F)C(F)(F)C(F)(F)C(F)(F)C(F)(F)F [PFOS, perfluorooctanesulfonic acid] | 1.13 ± 0.32 | 16.2 ± 0.90 |  | 
20 | O=C(O)C(F)(F)C(F)(F)C(F)(F)C(F)(F)F [PFPeA, perfluoropentanoic acid] | 2.14 ± 0.42 | 13.1 ± 0.066 | 2.1 ± 0.56 | 
21 | O=C(O)C(F)(F)C(F)(F)C(F)(F)C(F)(F)C(F)(F)C(F)(F)C(F)(F)C(F)(F)C(F)(F)C(F)(F)F [PFunDA, Perfluoroundecanoic acid] | 1.49 ± 0.048 | 9.02 ± 0.47 | 1.36 ± 1.06 | 
